Data reported in PMC5980303 (CPT: Pharmacometrics & Systems Pharmacology, 2018).
Values joined by “and” are separate entries in the source; they are usually repeats but may differ in a detail not shown here. Identical values can stand only once. Marks after values point to notes of the source that are not given here.

How the values were obtained:
[1] = cited from earlier work
[2] = doses of 15 mg or 20 mg in the absence of food; cited from earlier work
[3] = Integrated population pharmacokinetic model
[4] = cited from earlier work; remark: listed apart in the source
[5] = final population PK model, comedication factor on CL/F

## O=C(NC[C@H]1CN(c2ccc(N3CCOCC3=O)cc2)C(=O)O1)c1ccc(Cl)s1 [rivaroxaban]
[1]
  fraction of the dose eliminated renally as unchanged drug: Approximately one‐third
[2]
  bioavailability and absorption rate vs dose: less than dose proportional
[3]; VTE prevention, >72 hours, relative to VTE treatment (factor = 1)
  θCL/F, VTE >72 h (study-specific factor on CL/F): 1.29 Proportion
[3]; VTE prevention, ≤72 hours, relative to VTE treatment (factor = 1)
  θCL/F, VTE ≤72 h (study-specific factor on CL/F): 1.04 Proportion
[3]; acute coronary syndrome population, relative to VTE treatment (factor = 1)
  θCL/F, ACS (study-specific factor on CL/F): 1.14 Proportion
[3]; atrial fibrillation population, relative to VTE treatment (factor = 1)
  θCL/F, AF (study-specific factor on CL/F): 0.85 Proportion and 0.849 Proportion
[3]; final population PK model
  D50 (dose parameter of relative bioavailability function): 14.4 mg
  ω2 CL/F (interindividual variability): 0.167 (10.3) ^d Variance
  ω2 CL/F, V/F: 0.0674 Covariance
  ω2 ka (interindividual variability): 0.628 (32.8) ^d Variance
  ω^2 V/F (interindividual variability): 0.0391 (25.7) ^d Variance
[3]; final population PK model (run 12), 4,918 patients, oral rivaroxaban
  ka (first-order absorption rate constant): 0.821 h⁻¹
[3]; [5]
  θCL/F, CYP3A4 inducer: 1.30 Proportion
  θCL/F, Medium CYP3A4 inhibitor: 0.863 Proportion
  θCL/F, Strong CYP3A4 inhibitor: 0.978 Proportion
  θCL/F, Weak CYP3A4 inhibitor: 0.939 Proportion
[3]; final population PK model, comedication with P-gp inhibitor, factor on CL/F
  θCL/F, PGP: 0.966 Proportion
[3]; final population PK model, effect of Tietz-truncated CrCL on CL/F
  θCL/F, CrCL: 0.406 Power
[3]; final population PK model, effect of age on V/F
  θV/F, Age: −0.189 Power
[3]; final population PK model, effect of gender (female) on V/F
  θV/F, Sex: 0.889 Proportion
[3]; final population PK model, effect of weight on CL/F
  θCL/F, weight: −0.278 Power
[3]; final population PK model, effect of weight on V/F
  θV/F, weight: 0.216 Power
[3]; final population PK model, fixed, relative bioavailability fixed at 1.0 for a 10 mg dose
  Fmax (relative bioavailability as a function of dose): 1.25 Proportion
[3]; final population PK model, proportional residual error
  σ2 prop (residual variability): 0.203 (10.3) ^d Variance
[3]; final population PK model, relative to 10 mg dose (F = 1)
  Fmin (relative bioavailability as a function of dose): 0.590 Proportion
[3]; integrated population PK model
  AUC increase in the presence of strong CYP3A4 inhibitors: 1.02 fold
[4]
  Biopharmaceutics Classification System class: class 2
  permeability (BCS classification): high permeability
  solubility (BCS classification): low solubility
